Experimental findings from patent publication US9321756B2, “Azole compounds as PIM inhibitors” (priority 2011, dated 2016) are described below.

Like-named read-outs stand apart in the source and are kept apart here.

In experiment [1] the target is full length recombinant Pim-1 (Homo sapiens (Human), UniProt P11309). Kind of experiment: Pim enzyme assay (HTRF, phosphorylation of biotinylated-BAD (S112) peptide), Pim-1. Format: biochemical. In general terms: Time-resolved FRET reads energy transfer from a long-lived donor to a nearby acceptor.
Experiment [2] addresses full length recombinant Pim-2 (Homo sapiens (Human), UniProt Q9P1W9). Kind of experiment: Pim enzyme assay (HTRF, phosphorylation of biotinylated-BAD (S112) peptide), Pim-2. Format: biochemical. The conditions noted are these: Pim-2 enzyme assay; read-out: Pim2_IC50.
Experiment [3] concerns the target full length recombinant Pim-3 (Homo sapiens (Human), UniProt Q86V86). Kind of experiment: Pim enzyme assay (HTRF, phosphorylation of biotinylated-BAD (S112) peptide), Pim-3. Format: biochemical. Particulars: Pim-3 enzyme assay; read-out: Pim3 IC50. In a few lines: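 Full-length recombinant Pim-3 phosphorylated biotinylated BAD (S112) peptide in 60 mM Hepes pH 7.0, 0.05% BSA, 2 mM DTT for 1 h 30 min at 22 °C. After EDTA stop, HTRF was read with Eu anti-phospho-BAD and streptavidin-APC. IC50 came from 4-parameter logistic fit of percent-of-control values.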

The subject of experiment [4] is Pim-1 stably transfected U2OS human osteogenic sarcoma line. Kind of experiment: Pim cell assay U2OS (phospho-BAD normalized against total BAD), Pim-1 transfected. It is filed as cell-based. The conditions noted are these: Homo sapiens, U2OS.
The subject of experiment [5] is Pim-2 stably transfected U2OS human osteogenic sarcoma line. Kind of experiment: Pim cell assay U2OS (phospho-BAD normalized against total BAD), Pim-2 transfected. Format: cell-based. Particulars: Homo sapiens; U2OS cells, Pim-2 transfected; read-out: U2OS Pim2_Cell_IC50. How it is done: The cell lines used in the assay were generated by the stable transfection of either Pim-1 or Pim-2 into the U2OS human osteogenic sarcoma line. The assay for determination of the Pim activity in the engineered U2OS cell lines measures levels of phospho-BAD normalized against total BAD protein levels. It was conducted as follows:
The adherent cells were dissociated from the flasks using non-enzymatic cell dissociation solution (Sigma #C5914). […] The cells were then incubated overnight at 37° C., 5% CO2.
In addition to the 10-point dosing curve of the test compound, DMSO alone was run as the high control.
This dilution in DMSO was then diluted again into cell growth medium. Aliquots (12 μL) of the compound diluted in growth medium were then transferred to the appropriate wells of the 96-well plates containing cells to a final DMSO concentration of 0.3%. The cell plates were then incubated with compound for 29 min at 37° C., 5% CO2.
The cell plates containing lysis buffer were then immediately stored at −70° C.
These prepared lysates were then assayed for phospho and total BAD according to the manufacturer's protocols (Meso Scale Diagnostics, Cat#K15103C-3 & #K15103D-3). The plates were read on the MSD Sector Imager 6000, and results were calculated according to the assay protocols ((% Phosphoprotein=((2×Phospho signal)/(Phospho signal+Total signal))×100)).

Where [6] appears, read: Pim-1 enzyme assay, read-out: Pim_1_IC50.
Setting [7] is: read-out: U2OS Pim1_Cell_IC50, U2OS cells, Pim-1 transfected.

Sequence of full length recombinant Pim-2 (Q9P1W9 whole entry): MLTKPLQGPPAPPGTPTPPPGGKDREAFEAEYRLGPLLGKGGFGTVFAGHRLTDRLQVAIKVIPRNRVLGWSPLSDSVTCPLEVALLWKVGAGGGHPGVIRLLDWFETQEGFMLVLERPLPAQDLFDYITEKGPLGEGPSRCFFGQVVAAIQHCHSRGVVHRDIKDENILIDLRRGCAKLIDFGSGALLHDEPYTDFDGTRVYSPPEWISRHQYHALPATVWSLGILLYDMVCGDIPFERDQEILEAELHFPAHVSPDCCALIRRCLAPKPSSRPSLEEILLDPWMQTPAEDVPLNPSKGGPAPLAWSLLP
Sequence of full length recombinant Pim-1 (P11309 whole entry): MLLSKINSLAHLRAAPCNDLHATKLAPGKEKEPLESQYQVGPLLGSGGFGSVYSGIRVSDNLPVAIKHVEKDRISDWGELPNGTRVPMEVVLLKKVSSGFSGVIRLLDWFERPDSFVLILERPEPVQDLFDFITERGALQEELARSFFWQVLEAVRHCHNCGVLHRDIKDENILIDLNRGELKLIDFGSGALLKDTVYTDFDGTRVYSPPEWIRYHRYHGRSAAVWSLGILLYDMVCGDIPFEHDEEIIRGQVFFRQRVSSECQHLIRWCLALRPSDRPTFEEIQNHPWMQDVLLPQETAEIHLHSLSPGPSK

Regarding `CN1CCN(c2cncc(-c3c[nH]c4ccc(-c5nnc(N)s5)cc34)n2)CC1=O` [Example 18, 4-(6-(5-(5-amino-1,3,4-thiadiazol-2-yl)-1H-indol-3-yl)pyrazin-2-yl)-1-methylpiperazin-2-one], the IC50 is 15.8 nM in experiment [1] (setting [6]); 89.2 nM in experiment [2]; 7.41 nM in experiment [3]; above 31600 nM in experiment [4] (read-out: U2OS Pim1_Cell_IC50); above 31600 nM in experiment [5].
Take `CC1CCN(c2cncc(-c3c[nH]c4ccc(-c5nnc(N)s5)cc34)n2)CC1` [Example 162, 5-(3-(6-(4-methyl-1-piperidinyl)-2-pyrazinyl)-1H-indol-5-yl)-1,3,4-thiadiazol-2-amine]: the IC50 in experiment [1] (setting [6]) amounted to 12.7 nM; in experiment [2], 49.4 nM; in experiment [3], 8.54 nM; in experiment [4] (read-out: U2OS Pim1_Cell_IC50) it was 214 nM; in experiment [5], 5680 nM.
As for `CC(C)Oc1ccc(F)c(-c2c[nH]c3ccc(-c4nnc(N)o4)cc23)c1` [Example 83, 5-(3-(2-fluoro-5-(1-methylethoxy)phenyl)-1H-indol-5-yl)-1,3,4-oxadiazol-2-amine], the IC50 in experiment [1] (setting [6]) came to 59.3 nM; in experiment [2], 193 nM; in experiment [3] it was 36.2 nM; in experiment [4] (setting [7]), 725 nM; in experiment [5], 18500 nM.
Turning to `Cc1nccn1-c1cccc(-c2c[nH]c3ccc(-c4nnc(N)s4)cc23)n1` [Example 169, 5-(3-(6-(2-methyl-1H-imidazol-1-yl)-2-pyridinyl)-1H-indol-5-yl)-1,3,4-thiadiazol-2-amine], the IC50 in experiment [1] (setting [6]) was 26.4 nM; in experiment [2] it was 23.8 nM; in experiment [3] it was 11.8 nM; in experiment [4] (setting [7]), 1810 nM; in experiment [5], above 31600 nM.
The like results for `CNc1nnc(-c2ccc3[nH]cc(-c4nccc(N5CCCCC5)n4)c3c2)s1` [Example 135, N-methyl-5-(3-(4-(1-piperidinyl)-2-pyrimidinyl)-1H-indol-5-yl)-1,3,4-thiadiazol-2-amine] were, in that order, 86.1 nM, 59.7 nM, 32.7 nM, 8440 nM and above 31600 nM.
Regarding `Nc1nnc(-c2ccc3[nH]cc(-c4cncc(-c5ccccc5F)n4)c3c2)o1` [Example 116, 5-(3-(6-(2-fluorophenyl)-2-pyrazinyl)-1H-indol-5-yl)-1,3,4-oxadiazol-2-amine], the IC50 in experiment [1] (setting [6]) was 15.2 nM; in experiment [2], 19.6 nM; in experiment [3], 7.81 nM; in experiment [4] (setting [7]) it was 224 nM; in experiment [5], above 31600 nM.
With `Nc1nnc(-c2ccc3[nH]cc(-c4nccc(N5CCC[C@@H](O)C5)n4)c3c2)o1` (stereo in doubt) [Example 104, 1-(2-(5-(5-amino-1,3,4-oxadiazol-2-yl)-1H-indol-3-yl)-4-pyrimidinyl)-3-piperidinol], the IC50 in experiment [1] (setting [6]) came to 11.4 nM; in experiment [2], 7.73 nM; in experiment [3] it was 5.1 nM; in experiment [4] (read-out: U2OS Pim1_Cell_IC50), 2130 nM; in experiment [5], 15200 nM.
On to `CC1CCCCN1c1cncc(-c2c[nH]c3ccc(-c4nnc(N)s4)cc23)n1` (stereo not drawn) [Example 153, 5-(3-(6-(2-methyl-1-piperidinyl)-2-pyrazinyl)-1H-indol-5-yl)-1,3,4-thiadiazol-2-amine], for which the IC50 in experiment [1] is 1.77 nM; in experiment [2] it was 9.74 nM; in experiment [3], 1.7 nM; in experiment [4] (read-out: U2OS Pim1_Cell_IC50), 51.9 nM; in experiment [5], 1660 nM.
Regarding `Nc1nnc(-c2ccc3[nH]cc(-c4ccc5cn[nH]c5c4)c3c2)s1` [Example 171, 5-(3-(1H-indazol-6-yl)-1H-indol-5-yl)-1,3,4-thiadiazol-2-amine], the IC50 in experiment [1] (setting [6]) is 36.6 nM; in experiment [2] it was 58.3 nM; in experiment [3], 13.9 nM; in experiment [4] (setting [7]), 2660 nM; in experiment [5], above 31600 nM.
